Ends that are not written are not given here.
Target: T1, BNC1 (Homo sapiens, UniProt Q16515)
T1 construct: a 1539-bp open reading frame extending to the 3' stop codon; expressed in transfected cells; host or cells: Xenopus laevis oocytes, nuclear injection of BNC1 cDNA in pMT3
T1 sequence (Q16515 1-512 T495A): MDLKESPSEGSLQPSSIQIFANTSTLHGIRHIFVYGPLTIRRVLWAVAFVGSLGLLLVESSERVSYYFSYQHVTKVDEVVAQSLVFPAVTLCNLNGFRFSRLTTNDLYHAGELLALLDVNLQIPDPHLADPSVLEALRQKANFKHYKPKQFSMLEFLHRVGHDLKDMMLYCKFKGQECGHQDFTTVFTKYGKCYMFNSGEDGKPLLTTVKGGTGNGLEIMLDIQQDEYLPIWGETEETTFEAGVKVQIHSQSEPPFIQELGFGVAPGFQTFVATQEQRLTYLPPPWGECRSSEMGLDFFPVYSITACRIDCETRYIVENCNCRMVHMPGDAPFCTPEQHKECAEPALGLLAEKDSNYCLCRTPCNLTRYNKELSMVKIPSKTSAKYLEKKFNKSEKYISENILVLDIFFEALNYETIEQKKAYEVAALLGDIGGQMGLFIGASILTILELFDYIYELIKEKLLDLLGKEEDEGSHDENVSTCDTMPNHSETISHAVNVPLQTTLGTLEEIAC
Assay: Two-electrode voltage clamp of Xenopus oocytes expressing BNC1
Format: cell-based
Settings: for activation of BNC1 current by agonist peptide: peptide added to bathing solution at 1-30 μM
Procedure: Expression of BNC1 in Xenopus laevis Oocytes--BNC1 was expressed in Xenopus oocytes by nuclear injection of BNC1 cDNA cloned into pMT3 (0.2-0.3 ng). Control oocytes were injected with H2 O. α-, β-, and γhENaC (αβγhENaC) were expressed as described previously. Oocytes were maintained at 18° C. in modified Barth's solution, and current was measured by two-electrode voltage clamp 1 day after injection. During voltage clamp, oocytes were bathed in 116 mM NaCl, 2 mM KCl, 0.4 mM CaCl2, 1 mM Mg Cl2, 5 mM Hepes (pH 7.4 with NaOH). To determine ionic selectivity, NaCl was replaced with LiCl or KCl. Current-voltage relationships were determined by stepping from a holding potential of -60 mV to potentials between -100 and +40 mV for 1 second. Amiloride-sensitive current was obtained by subtracting current during exposure to a maximal concentration of amiloride (100 μM) from current prior to amiloride addition. Phe-Met-Arg-Phe-NH2 (FMRF-am-ide), Phe-Leu-Phe-Gln-Pro-Gln-Arg-Phe-NH2 (F-8-F-amide), and Ala-Gly-Glu-Gly-Leu-Ser-Ser-Pro-Phe-Trp-Ser-Leu-Ala-Ala-Pro-Gln-Arg-Phe-NH2 (A-18-F-amide) were obtained from Sigma and were added to the bathing solution at 1-30 μM.

Molecule | activation of BNC1 current by agonist peptide (BNC1 in Xenopus oocytes) | IC50 (BNC1 expressed in Xenopus oocytes, plotted as fraction of response to 100 μM amiloride, n=4 (FIG. 8), read-out: half-maximal inhibition of Na+ current) | inward current reversibly inhibited by amiloride (amiloride-sensitive current) (BNC1 in Xenopus oocytes, holding potential -60 mV, amiloride 100 μM, n=12 (FIG. 6))
CC(C)C[C@H](NC(=O)[C@@H](N)Cc1ccccc1)C(=O)N[C@@H](Cc1ccccc1)C(=O)N[C@@H](CCC(N)=O)C(=O)N1CCC[C@H]1C(=O)N[C@@H](CCC(N)=O)C(=O)N[C@@H](CCCNC(=N)N)C(=O)N[C@@H](Cc1ccccc1)C(N)=O [F-8-F-amide, Phe-Leu-Phe-Gln-Pro-Gln-Arg-Phe-NH2] | not activated | – | –
N=C(N)NC(=O)c1nc(Cl)c(N)nc1N [amiloride] | – | 147 ± 23 nM | 14.0±2.7 nA
Ala-Gly-Glu-Gly-Leu-Ser-Ser-Pro-Phe-Trp-Ser-Leu-Ala-Ala-Pro-Gln-Arg-Phe-NH2 (AGEGLSSPFWSLAAPQRF-NH2) [A-18-F-amide, related mammalian peptide, obtained from Sigma] | not activated | – | –

From patent US5892018A, “DNA sequences encoding a brain sodium channel protein” (priority 1997, dated 1999)
